Assay results taken from patent US20210214448A1, “CCR5 BINDING AGENT FOR THE TREATMENT OF CCR5 POSITIVE METASTATIC CANCER” (CytoDyn Inc., priority 2020, published 2021).
“Also recorded” adds a separate entry of the source.

Legend:
[1] = tested on: MDA-MB-231 cells expressing Luc2-eGFP (MDA-MB-231.pFLUG); assay: Breast cancer tumor / lung metastasis model in mice, bioluminescence imaging; format: in vivo, female NCI Athymic NCr-nu/nu mice
Procedure: Each mouse received one million (10^6) MDA-MB-231 cells expressing Luc2-eGFP (called MDA-MB-231.pFLUG) through the tail vein. […] Treatment was started one day before the injection.
In vivo bio-luminescence imaging was performed following intraperitoneal injection with 100 μl of D-luciferin (30 mg/mL) to the control and treated groups. […] FIG. 1D is a plot of the percentage of mice with tumors.

CCR5 = CCR5 (Homo sapiens, UniProt P51681); conditions: Jiao 2018; cited from earlier work
CCR5, sequence (P51681 whole entry): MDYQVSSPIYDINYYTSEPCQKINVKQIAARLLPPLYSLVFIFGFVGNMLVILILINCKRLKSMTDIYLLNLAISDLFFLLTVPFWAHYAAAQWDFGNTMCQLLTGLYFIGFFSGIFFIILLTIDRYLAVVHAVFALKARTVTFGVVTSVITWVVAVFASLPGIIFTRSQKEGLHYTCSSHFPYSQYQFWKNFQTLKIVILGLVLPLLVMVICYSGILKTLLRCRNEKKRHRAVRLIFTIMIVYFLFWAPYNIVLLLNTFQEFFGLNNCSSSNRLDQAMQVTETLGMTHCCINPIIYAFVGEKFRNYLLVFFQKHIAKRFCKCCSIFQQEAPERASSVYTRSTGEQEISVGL

HIV-1 = conditions: at concentrations that do not affect CCR5 chemokine receptor activity; Olson 1999, Trkola 2001; cited from earlier work
[2] = tested on: metastatic HER2+ breast cancer; assay: Single patient emergency use IND: CT/MRI imaging of metastases; format: in vivo, human; conditions: Patient A, 700 mg weekly
Excerpt: This subject, Patient A, is a person with a diagnosis of metastatic breast cancer, stage IV. The subject previously received Taxotere/Herceptin/Pertuzumab as frontline therapy for metastatic HER2 positive breast cancer. They had partial response for their systemic disease, but then developed diffuse brain metastases (systemic disease stable). They completed whole-brain radiation therapy and continues on Herceptin and Pertuzumab. They have neuropathy and residual side effects from chemotherapy, which limits use of current second-line options due to concern for side effects.
Prior to enrolling in the trial, the patient had 18 identifiable tumor spots in the brain.

[3] = tested on: CCR5+ metastatic Triple Negative Breast Cancer (mTNBC); assay: Phase Ib/II mTNBC study: tumor imaging scans; format: in vivo, human; conditions: Patient D, with carboplatin
Excerpt: (§1) The primary objective of Phase 1b is to determine the safety, tolerability, and maximum tolerated dose (MTD) of PRO 140 in patients with TNBC, when combined with carboplatin to define a recommended Phase II dose of the combination. The primary objective of phase 2b is to evaluate the impact on progression-free survival (PFS) of the combination of PRO 140 and carboplatin in patients with CCR5+ TNBC previously treated with anthracyclines and taxanes in a neoadjuvant and adjuvant setting. For further investigational plan details please refer to section 5.3.5 in SNO01 (IND 141723).
(§2) Each treatment cycle consisted of 21 days. […] This treatment regimen was used for all subjects enrolled in the mTNBC study, unless otherwise indicated.
Scans were taken at the end of every two cycles (every 6 weeks). The subject had Scan 1 after six weeks, Scan 2 after 12 weeks, and Scan 3 after 18 weeks (Table 4).

[4] = Phase Ib/II mTNBC study: adverse events; format: in vivo; conditions: Patient D, weekly 350 mg leronlimab + carboplatin every three weeks, up to Cycle 6 Day 1 visit
Excerpt: as §1, §2

[5] = tested on: circulating tumor cells (CTC), epithelial mesenchymal transition cells (EMTs) and cancer-associated macrophage-like cells (CAMLs); assay: Phase Ib/II mTNBC study: CTC, EMT and CAML counts in blood (LifeTrac Assay, CellSieve filtration); format: in vivo, human; conditions: for Number of CTCs (PD-L1) / Number of Apoptotic CTCs (CCR5) / Number of CAMLs (CCR5) / Number of CAMLs (PD-L1) / Number of CTCs (CCR5) / Number of EMTs (CCR5) / Number of EMTs (PD-L1) / CAML- Total / EMT-Total / Number of Apoptotic CTC (PD-L1) / CTC-Total: Patient D; for Number of CTCs (PD-L1): baseline 0; for Number of Apoptotic CTCs (CCR5) / Number of CAMLs (CCR5) / Number of CAMLs (PD-L1) / Number of CTCs (CCR5) / Number of EMTs (CCR5) / Number of EMTs (PD-L1): baseline 1; for CAML- Total / EMT-Total: baseline 2; for Number of Apoptotic CTC (PD-L1): baseline 3; for CTC-Total: baseline 5
Excerpt: as §1, §2
The blood sample for circulating tumor cells (CTC) and cancer-associated macrophage-like cells (CAMLs) assessment was collected at baseline and subsequently at Day 1 of each treatment cycle to assess changes in CTCs and CAMLs after treatment and to perform correlative analysis between CCR5 expression and PD-L1 expression.
Creatv Microtech has developed a size-based technology and detection methodology (LifeTrac Assay) that enables the collection and characterization of all cancer-associated cells in the blood i.e., CTCs, epithelial mesenchymal transition cells (EMTs) and CAMLs [Adams Cytometry 2015, Adams RSC 2014]. The CellSieve™ filtration platform is used to capture CAMLs and CTCs.

CTC and EMT = assay: Single patient emergency use IND: CTC and EMT counts; format: in vivo, human; conditions: Patient A, 700 mg weekly, approximately ten weeks after initiation
Procedure: Approximately ten weeks following the initiation of treatment, the subject's CTC and EMT counts were measured, and zero CTCs and zero EMTs were identified. Lesion and nodule sizes were measured in the breast and liver of Patient A and metastases were also qualitatively described (FIG. 6). Protein expression levels of CCR5 (FIG. 7A) and PD-L1 (FIG. 7B) on individual CAMLs from Patient A were measured by flow cytometry and reported as Mean Fluorescence Intensity (MFI). CCR5 MFI (“CCR5 INT”) was calculated by subtracting background signal of a negative control sample from the experimental value. CAML size was also measured and reported in […].

For maraviroc, the “Lung metastasis / homing of breast cancer cells to the lungs in mouse model” value ([1]; FIG. 1) is listed as “block homing of breast cancer cells to the lungs; also recorded: inhibition of lung metastasis; also recorded: effectively blocked lung metastases” and the “Cell killing mediated by DNA-damaging chemotherapeutic agents” value (CCR5) is listed as “dramatically enhanced”.

For “leronlimab: humanized monoclonal anti-CCR5 antibody, humanized version of the murine mAb PA14”, the “HIV-1 entry and replication” value (HIV-1) is given as “potently inhibits”, the “New metastatic spots in the liver, lung and brain (CT scan)” value ([2]; approximately four weeks after initial treatment) is given as “no sign of new metastatic spots” and the “Reduction in tumor volume of the largest brain tumor” value ([2]; approximately two months) is given as 56%. The “New metastasis in the brain” value ([2]; approximately two months after initial treatment) was “no new metastasis was detectable”, the “Identifiable lesions in the brain” value ([2]; approximately two months, 18 identifiable tumor spots before) was “three” and the New lung nodules ([3]; Scan 3) was “no new lung nodules found”. The “New lymphadenopathy or metastatic disease on diagnostic CT chest, abdomen and pelvis” value ([3]; Scan 3) was “No new”, the “Previously identified right hilar lymph node” value ([3]; Scan 3) was “resolved” and the “Right lung metastasis maximum standardized uptake values (SUVs)” value ([3]; Scan 3, previously 15.3) was “values (SUVs) of 6.8 (previously”. For the same molecule, the “Decrease in size of target lesion” value ([3]; scan 3 vs previous 2.4×1.9) was 20%, the Serious adverse events [4] was “no serious adverse events had been reported” and the “Tumor volume in a breast cancer tumor model” value ([1]; mouse, in vivo) was “significant reduction”. The “Detectable levels of CTC” value ([5]; Patient C (second subject), with carboplatin, after two weeks of treatment) was “no detectable levels”, the “Reduction in EMT cells” value ([5]; Patient C, with carboplatin, after two weeks of treatment) was 70% and the CAML count ([5]; Patient C, with carboplatin, following at least two weeks of treatment, initial count 45) was 30. For the same molecule, the “CCR5 expression on cancer-associated cells” value ([5]; Patient D (first patient), with carboplatin, approximately 11 weeks of treatment) was “large reductions”, the “Detectable circulating tumor cells (CTC) or putative metastatic tumor cells in peripheral blood” value ([5]; Patient D (first subject), with carboplatin, following 16 weeks of treatment) was “no detectable” and the “Number of CTCs (PD-L1)” value ([5]; with carboplatin, C1D1) was 0. For the same molecule, the “Number of Apoptotic CTCs (CCR5)” value ([5]; with carboplatin, C1D1) was 0, the “Number of CAMLs (CCR5)” value ([5]; with carboplatin, C1D1) was 0 and the “Number of CAMLs (PD-L1)” value ([5]; with carboplatin, C1D1) was 1. The “Number of CTCs (CCR5)” value ([5]; with carboplatin, C1D1) was 0, the “Number of EMTs (CCR5)” value ([5]; with carboplatin, C1D1) was 1 and the “Number of EMTs (PD-L1)” value ([5]; with carboplatin, C1D1) was 1. The “CAML- Total” value ([5]; with carboplatin, C1D1) was 1, the EMT-Total ([5]; with carboplatin, C1D1) was 2 and the “Number of Apoptotic CTC (PD-L1)” value ([5]; with carboplatin, C1D1) was 0. For the same molecule, the CTC-Total ([5]; with carboplatin, C1D1) was 0, the “Number of CTCs (PD-L1)” value ([5]; with carboplatin, C2D1) was 0 and the “Number of Apoptotic CTCs (CCR5)” value ([5]; with carboplatin, C2D1) was 0. The “Number of CAMLs (CCR5)” value ([5]; with carboplatin, C2D1) was 1, the “Number of CAMLs (PD-L1)” value ([5]; with carboplatin, C2D1) was 2 and the “Number of CTCs (CCR5)” value ([5]; with carboplatin, C2D1) was 0. For the same molecule, the “Number of EMTs (CCR5)” value ([5]; with carboplatin, C2D1) was 0, the “Number of EMTs (PD-L1)” value ([5]; with carboplatin, C2D1) was 0 and the “CAML- Total” value ([5]; with carboplatin, C2D1) was 3. For the same molecule, the EMT-Total ([5]; with carboplatin, C2D1) was 0, the “Number of Apoptotic CTC (PD-L1)” value ([5]; with carboplatin, C2D1) was 0 and the CTC-Total ([5]; with carboplatin, C2D1) was 0. The “Number of CTCs (PD-L1)” value ([5]; with carboplatin, C3D1) was 0, the “Number of Apoptotic CTCs (CCR5)” value ([5]; with carboplatin, C3D1) was 0 and the “Number of CAMLs (CCR5)” value ([5]; with carboplatin, C3D1) was 3. For the same molecule, the “Number of CAMLs (PD-L1)” value ([5]; with carboplatin, C3D1) was 1, the “Number of CTCs (CCR5)” value ([5]; with carboplatin, C3D1) was 0 and the “Number of EMTs (CCR5)” value ([5]; with carboplatin, C3D1) was 0. The “Number of EMTs (PD-L1)” value ([5]; with carboplatin, C3D1) was 0, the “Number of Apoptotic CTC (PD-L1)” value ([5]; with carboplatin, C3D1) was 0 and the “Number of CTCs (PD-L1)” value ([5]; with carboplatin, C4D1) was 0. The “Number of Apoptotic CTCs (CCR5)” value ([5]; with carboplatin, C4D1) was 0, the “Number of CAMLs (CCR5)” value ([5]; with carboplatin, C4D1) was 0 and the “Number of CAMLs (PD-L1)” value ([5]; with carboplatin, C4D1) was 1. For the same molecule, the “Number of CTCs (CCR5)” value ([5]; with carboplatin, C4D1) was 0, the “Number of EMTs (CCR5)” value ([5]; with carboplatin, C4D1) was 0 and the “Number of EMTs (PD-L1)” value ([5]; with carboplatin, C4D1) was 0. The “CAML- Total” value ([5]; with carboplatin, C4D1) was 1, the EMT-Total ([5]; with carboplatin, C4D1) was 0 and the “Number of Apoptotic CTC (PD-L1)” value ([5]; with carboplatin, C4D1) was 0. For the same molecule, the CTC-Total ([5]; with carboplatin, C4D1) was 0, the “Number of CTCs (PD-L1)” value ([5]; with carboplatin, C5D1) was 0 and the “Number of Apoptotic CTCs (CCR5)” value ([5]; with carboplatin, C5D1) was 0. For the same molecule, the “Number of CAMLs (CCR5)” value ([5]; with carboplatin, C5D1) was 1, the “Number of CAMLs (PD-L1)” value ([5]; with carboplatin, C5D1) was 2 and the “Number of CTCs (CCR5)” value ([5]; with carboplatin, C5D1) was 0. The “Number of EMTs (CCR5)” value ([5]; with carboplatin, C5D1) was 0, the “Number of EMTs (PD-L1)” value ([5]; with carboplatin, C5D1) was 0 and the “CAML- Total” value ([5]; with carboplatin, C5D1) was 3. The EMT-Total ([5]; with carboplatin, C5D1) was 0, the “Number of Apoptotic CTC (PD-L1)” value ([5]; with carboplatin, C5D1) was 0 and the CTC-Total ([5]; with carboplatin, C5D1) was 0. For the same molecule, the “CAML- Total” value ([5]; with carboplatin, C6D1) was 8, the EMT-Total ([5]; with carboplatin, C6D1) was 0 and the CTC-Total ([5]; with carboplatin, C6D1) was 0. The “Detectable circulating tumor cells (CTCs) or putative metastatic tumor cells in peripheral blood” value ([5]; first patient of Phase 1b/2 trial, at 11 weeks of treatment) was “no detectable”, the “Decrease of total CTC+EMT counts” value ([5]; third subject, with carboplatin, first two weeks of treatment) was 75% and the CTC count (CTC and EMT) was “zero”. For the same molecule, the EMT count (CTC and EMT) was “zero”.

In the case of `COC[C@@H](c1ccc(C(F)(F)F)cc1)N1CCN(C2(C)CCN(C(=O)c3c(C)ncnc3C)CC2)C[C@@H]1C` [vicriviroc], the “Cell killing mediated by DNA-damaging chemotherapeutic agents” value (CCR5) is given as “dramatically enhanced”.
